According to US11358985B2, “Tripeptide compound, preparation method therefor, and application thereof” (NORTHWEST UNIVERSITY, priority 2014, dated 2022):

Legend:
[1] = biological target: angiotensin-converting enzyme (ACE) (UniProt P12822); format: biochemical; details: substrate HHL, 37° C., pH 8.3, hippuric acid at 228 nm
[2] = system: mouse ACE; test: In vivo ACE activity test: ACE content in kidney tissue by double antibody sandwich ELISA; design: species or system Kunming mice; details: for ACE content: male Kunming mice, kidney homogenate, intragastric 0.05 mmol/kg once a day for 7 days, 2 h after final dose
[3] = system: spontaneously hypertensive rats (SHR); test: Blood pressure in SHR rats after multiple administrations; format: in vivo, rat
Method: (§1) SPF grade male spontaneously hypertensive model rats (SHR) (male, 12 weeks old, body weight 200 g±20 g) were divided into three groups: blank group, control group and sample group, with 6 rats each group. Animals were housed in the Shaanxi Provincial Biomedical Animal Laboratory at the School of Life Sciences of Northwest University at a temperature of 22° C. and a humidity of 50%, with 12 hours light/dark cycle and free to eat and drink water. The SHR rats were trained to adapt to blood pressure measurements after 5 days of adaptation to the environment. Prior to administration, the basal blood pressure of the rats in each group was measured and the systolic blood pressure was between 190±5 mmHg.
The particular measurement steps: the conscious rats were placed in the fixed box of the blood pressure meter. […] After the signal was stabilized, the blood pressure was measured and the 5 readings with a change in blood pressure less than 10 mmHg were recorded, with an interval of 10 seconds. […]
According to the above method and dose, rats were administered intragastrically continuously for 7 days, once a day. Blood pressure was measured 2 hours after administration. After the end of the administration, blood pressure was measured continuously for 7 days, once a day, and the change in blood pressure was recorded.

[4] = system: spontaneously hypertensive rats (SHR); test: Blood pressure in SHR rats after one administration (tail pulse indirect pressure measurement); format: in vivo, rat
Method: as §1
The systolic blood pressure of the experimental rats was measured by tail pulse indirect pressure measurement. […]
The particular measurement steps: the conscious rats were placed in the fixed box of the blood pressure meter. A heating plate at 30° C. was provided in the bottom of the fixed box, which was preheated for 10 min to expand the local blood vessels. […] After the signal was stabilized, the blood pressure was measured and the 5 readings with a change in blood pressure less than 10 mmHg were recorded, with an interval of 10 seconds. […]

angiotensin-converting enzyme (ACE), sequence (P12822 whole entry): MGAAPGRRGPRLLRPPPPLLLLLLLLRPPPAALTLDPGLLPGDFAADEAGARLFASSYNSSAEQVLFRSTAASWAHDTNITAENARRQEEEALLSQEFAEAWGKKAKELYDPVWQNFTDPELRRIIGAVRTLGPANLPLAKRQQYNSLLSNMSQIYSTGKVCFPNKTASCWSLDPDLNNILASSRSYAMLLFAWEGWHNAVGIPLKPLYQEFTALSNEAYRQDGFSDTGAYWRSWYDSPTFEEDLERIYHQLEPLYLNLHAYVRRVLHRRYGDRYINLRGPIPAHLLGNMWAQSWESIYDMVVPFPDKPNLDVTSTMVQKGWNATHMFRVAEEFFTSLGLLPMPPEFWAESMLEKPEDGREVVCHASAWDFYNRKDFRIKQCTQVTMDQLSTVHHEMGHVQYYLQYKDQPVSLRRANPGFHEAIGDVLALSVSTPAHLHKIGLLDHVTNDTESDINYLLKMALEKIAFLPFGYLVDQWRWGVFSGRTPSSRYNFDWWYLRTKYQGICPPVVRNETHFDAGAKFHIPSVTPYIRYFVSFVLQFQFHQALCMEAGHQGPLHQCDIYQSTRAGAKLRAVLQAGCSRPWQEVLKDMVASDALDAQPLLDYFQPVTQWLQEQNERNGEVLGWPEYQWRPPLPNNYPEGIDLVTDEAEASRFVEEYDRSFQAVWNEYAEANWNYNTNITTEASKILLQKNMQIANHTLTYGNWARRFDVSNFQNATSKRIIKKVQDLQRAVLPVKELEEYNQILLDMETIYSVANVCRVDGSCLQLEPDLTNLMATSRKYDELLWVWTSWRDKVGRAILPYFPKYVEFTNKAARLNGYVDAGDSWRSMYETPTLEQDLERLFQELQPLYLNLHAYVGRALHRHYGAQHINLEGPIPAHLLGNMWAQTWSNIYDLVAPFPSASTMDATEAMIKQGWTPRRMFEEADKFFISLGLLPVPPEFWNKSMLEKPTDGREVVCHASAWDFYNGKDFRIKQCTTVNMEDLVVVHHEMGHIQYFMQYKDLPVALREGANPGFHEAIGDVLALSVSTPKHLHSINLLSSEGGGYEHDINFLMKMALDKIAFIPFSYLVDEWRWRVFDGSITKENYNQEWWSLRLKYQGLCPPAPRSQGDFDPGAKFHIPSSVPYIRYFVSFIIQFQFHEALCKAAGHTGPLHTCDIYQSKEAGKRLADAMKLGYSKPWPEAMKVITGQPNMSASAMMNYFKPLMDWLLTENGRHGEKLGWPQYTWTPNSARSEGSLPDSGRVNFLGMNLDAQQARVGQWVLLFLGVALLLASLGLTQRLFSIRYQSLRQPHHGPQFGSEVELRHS

Row | Structure (SMILES) | IC50 [1] [nM] | ACE content [2] [pg/mL] | also measured
1 | CC1(C)C2CCC1(C)C(OC(=O)[C@@H]1CCCN1C(=O)[C@@H]1CCCN1C(=O)[C@H](O)Cc1ccc(O)c(O)c1)C2 (stereo in doubt) [Compound 221S-6a] | 43 ± 6 | 76 ± 5 | 
2 | C[C@H](NC(=O)[C@H](O)Cc1ccc(O)c(O)c1)C(=O)N1CCC[C@H]1C(=O)OC1CC2CCC1(C)C2(C)C (stereo partly drawn) [Compound 221S-1a] | 23 ± 9 | 64 ± 8 | dose dependence of effect on arterial systolic pressure ([3]; 7 days intragastric at different doses, 14 days (FIG. 5)): dose-dependent; antihypertensive effect (arterial systolic pressure) compared with captopril ([3]; intragastric once a day for 7 days, followed over 14 days (FIG. 4)): better antihypertensive effect than captopril; reduction of ACE content compared with captopril (in words) ([2]; intragastric 0.05 mmol/kg, 7 days, summary of Table 8): most significant reduction effect; dose dependence of antihypertensive effect ([4]; single intragastric administration at different doses, within 6 hours (FIG. 3)): good dose-dependent relationship; antihypertensive effect (arterial systolic pressure) compared with captopril ([4]; single intragastric administration, within 6 hours (FIG. 2, 3)): antihypertensive effect was better than that of captopril
3 | C[C@H](NC(=O)[C@@H](O)Cc1ccc(O)c(O)c1)C(=O)N1CCC[C@H]1C(=O)OC1CC2CCC1(C)C2(C)C (stereo partly drawn) [Compound 221S-1b] | 33 ± 6 | 78 ± 12 | 
4 | CC(C)[C@H](NC(=O)[C@H](O)Cc1ccc(O)c(O)c1)C(=O)N1CCC[C@H]1C(=O)OC1CC2CCC1(C)C2(C)C (stereo partly drawn) [Compound 221S-2a] | 37 ± 5 | 87 ± 8 | 
5 | CC(C)C[C@H](NC(=O)[C@H](O)Cc1ccc(O)c(O)c1)C(=O)N1CCC[C@H]1C(=O)OC1CC2CCC1(C)C2(C)C (stereo partly drawn) [Compound 221S-3a] | 27 ± 7 | 79 ± 7 | 
6 | CCC(C)[C@H](NC(=O)[C@H](O)Cc1ccc(O)c(O)c1)C(=O)N1CCC[C@H]1C(=O)OC1CC2CCC1(C)C2(C)C (stereo partly drawn) [Compound 221S-4a] | 34 ± 7 | 82 ± 10 | 
7 | CC(C)(C)[C@H](NC(=O)[C@H](O)Cc1ccc(O)c(O)c1)C(=O)N1CCC[C@H]1C(=O)OC1CC2CCC1(C)C2(C)C (stereo partly drawn) [Compound 221S-5a] | 28 ± 9 | 89 ± 11 | 
8 | CSCC[C@H](NC(=O)[C@H](O)Cc1ccc(O)c(O)c1)C(=O)N1CCC[C@H]1C(=O)OC1CC2CCC1(C)C2(C)C (stereo partly drawn) [Compound 221S-7a] | 78 ± 5 | 71 ± 9 | 
9 | CC1(C)C2CCC1(C)C(OC(=O)[C@@H]1CCCN1C(=O)[C@H](Cc1ccccc1)NC(=O)[C@H](O)Cc1ccc(O)c(O)c1)C2 (stereo partly drawn) [Compound 221S-8a] | 65 ± 5 | 80 ± 7 | 
10 | CC1(C)C2CCC1(C)C(OC(=O)[C@@H]1CCCN1C(=O)CNC(=O)[C@H](O)Cc1ccc(O)c(O)c1)C2 (stereo partly drawn) [Compound 221S-15a] | 33 ± 6 | 83 ± 11 | 
11 | COc1cc(/C=C/C(=O)N[C@@H](C)C(=O)N2CCC[C@H]2C(=O)OC2CC3CCC2(C)C3(C)C)ccc1O (stereo partly drawn) [Compound 221S-27a] | 44 ± 3 | 82 ± 11 | 
12 | C[C@H](NC(=O)/C=C/c1ccc(O)c(O)c1)C(=O)N1CCC[C@H]1C(=O)OC1CC2CCC1(C)C2(C)C (stereo partly drawn) [Compound 221S-28a] | 29 ± 7 | 79 ± 8 | 
13 | C[C@H](NC(=O)Cc1ccc(O)c(O)c1)C(=O)N1CCC[C@H]1C(=O)OC1CC2CCC1(C)C2(C)C (stereo partly drawn) [Compound 221S-29a] | 38 ± 5 | 85 ± 8 | 
14 | C[C@H](NC(=O)c1ccc(O)c(O)c1)C(=O)N1CCC[C@H]1C(=O)OC1CC2CCC1(C)C2(C)C (stereo partly drawn) [Compound 221S-30a] | 35 ± 6 | 75 ± 8 | 
15 | C[C@H](NC(=O)c1cc(O)c(O)c(O)c1)C(=O)N1CCC[C@H]1C(=O)OC1CC2CCC1(C)C2(C)C (stereo partly drawn) [Compound 221S-31a] | 31 ± 8 | 71 ± 13 | 
